In paper PMC12203525, “The insight into the biology of five homologous lectins produced by the entomopathogenic bacterium and nematode symbiont Photorhabdus laumondii” (Glycobiology, 2025):
Where two headings read alike, the source gives them in different places.

Assays:
PLL2 [1] = molecular target: PLL2; design: method as in Fujdiarová et al, 2021, Faltinek et al, 2019; conditions: ref Fujdiarová et al, 2021, Faltinek et al, 2019, cited from earlier work; for Kd: ITC; for interaction with the sugar in ITC (in words): PLL2
PLL3 [2] = test system: PLL3; design: method as in Faltinek et al. 2019; Fujdiarová et al. 2021; conditions: inhibition of PLL3 binding to immobilized MGMR, ref Faltinek et al. 2019, Fujdiarová et al. 2021, cited from earlier work
PLL2 [3] = test system: PLL2; design: method as in Faltinek et al. 2019; Fujdiarová et al. 2021; conditions: inhibition of PLL2 binding to immobilized MGMR, ref Faltinek et al. 2019, Fujdiarová et al. 2021, cited from earlier work
PLL3 [4] = molecular target: PLL3; design: method as in Fujdiarová et al, 2021, Faltinek et al, 2019; conditions: ref Fujdiarová et al, 2021, Faltinek et al, 2019, cited from earlier work; for Kd: ITC; for interaction with the sugar in ITC (in words): PLL3
PLL5 [5] = molecular target: T1, PLL5 (Photorhabdus laumondii subsp. laumondii, UniProt Q7N8I5); assay: Isothermal titration calorimetry (ITC); assay type: binding, Photorhabdus laumondii subsp. laumondii TT01; conditions: for KD / Kd: ITC; for interaction with the sugar in ITC (in words): PLL5
Method: (§1) ITC experiments were performed using an Auto-ITC200 calorimeter or Automated PEAQ-ITC calorimeter (both Malvern Panalytical, Malvern, UK). Measurements were carried out at 25 °C in the Tris buffer. Before the analyses, lectins were extensively dialyzed against the Tris buffer and the dialysate was used to dissolve ligands. The protein (0.1 mM or 0.2 mM) in the cell was titrated with 2 μL injections of the ligand (20 mM or 40 mM). […] Experiments for each interacting ligand were carried out in triplicates. Integrated heat effects were evaluated by nonlinear regression using a single-site binding model in Origin 7 (OriginLab, Northampton, USA) ([Wiseman et al. 1989]). Triplicate measurements were fitted simultaneously using a global fit approach. Due to the low affinity of the interaction, the binding stoichiometry was fixed during the fitting.

PLL4 [6] = molecular target: T2, PLL4 (Photorhabdus laumondii subsp. laumondii, UniProt Q7N8I6); assay: Isothermal titration calorimetry (ITC); assay type: binding, Photorhabdus laumondii subsp. laumondii TT01; conditions: for KD / Kd: ITC; for interaction with the sugar in ITC (in words): PLL4
Method: as §1

PLL [7] = molecular target: T3, PLL (Photorhabdus laumondii subsp. laumondii, UniProt Q7N8J0); assay: Isothermal titration calorimetry (ITC); assay type: binding, Photorhabdus laumondii subsp. laumondii TT01
Method: as §1

PLL5 [8] = molecular target: T1, PLL5; assay: SPR inhibition assay on the MGMR channel; design: species or system Photorhabdus laumondii subsp. laumondii TT01; conditions: inhibition of PLL5 (62 nM) binding to immobilized MGMR
Method: (§2) SPR experiments were carried out on BIAcore T200 or BIAcore S200 instruments (GE Healthcare, UK). Sugar moieties were immobilized on the chip surface using the standard procedures according to the manufacturer’s instructions. Measurements with immobilized MGMR were performed on the chip prepared previously (high-density chip) ([Fujdiarová et al. 2021]). Measurements with immobilized α-L-fucose were performed on the streptavidin chip (GE Healthcare, UK). Biotinylated α-L-fucose was immobilized on channel 2 to yield a final response of 29 RU, unmodified channel 1 was used as a control.
(§3) Measurements were performed in Tris buffer with the addition of 0.05% Tween 20 at a flow rate of 30 μl/min at 25 °C. […] 50 mM NaOH for 30 s (flow 30 μl/min) was used for chip regeneration. To determine KDs (app) towards MGMR, 2-fold dilution series of lectins was used (PLL: 0.048 – 50 μM, PLL4: 0.008 - 2 μM; PLL5: 1.9 – 500 nM). The data were evaluated with the BIAcore T200 or BIAcore S200 evaluation software using a steady state approach. To determine KD(app) towards α-L-fucose, 2-fold dilution series of lectins was used (PLL: 1.25 – 20 μM, PLL4: 0.39 – 12.5 μM; PLL5: 0.12 – 30 μM). The data were evaluated with the BIAcore T200 or BIAcore S200 evaluation software using a steady state approach (PLL5) or a single-cycle kinetics approach (PLL, PLL4). For SPR inhibition experiments on the MGMR channel, 250 nM PLL, 250 nM PLL4 or 62 nM PLL5, respectively, was used. Proteins of the given concentration were mixed with a concentration series of tested inhibitors (0.01 - 0.4 M). Proteins without an inhibitor were used as a control. The response of the lectin bound to the sugar surface at equilibrium was plotted against the concentration of inhibitor in order to determine IC50. The response in the appropriate blank channel was subtracted prior to all evaluations.

PLL4 [9] = molecular target: T2, PLL4; assay: SPR inhibition assay on the MGMR channel; design: species or system Photorhabdus laumondii subsp. laumondii TT01; conditions: inhibition of PLL4 (250 nM) binding to immobilized MGMR
Method: as §2, §3

PLL [10] = molecular target: T3, PLL; assay: SPR inhibition assay on the MGMR channel; design: species or system Photorhabdus laumondii subsp. laumondii TT01; conditions: inhibition of PLL (250 nM) binding to immobilized MGMR
Method: as §2, §3

[11] = PLL2, stoichiometry N fixed to 2
[12] = PLL2, stoichiometry N fixed to 4
[13] = PLL2, stoichiometry N fixed to 6
[14] = PLL2, stoichiometry N fixed to 8
[15] = PLL3, stoichiometry N fixed to 2
[16] = PLL3, stoichiometry N fixed to 4
[17] = PLL3, stoichiometry N fixed to 6
[18] = PLL3, stoichiometry N fixed to 8
[19] = PLL5, stoichiometry N fixed to 2
[20] = PLL5, stoichiometry N fixed to 4
[21] = PLL5, stoichiometry N fixed to 6
[22] = PLL5, stoichiometry N fixed to 8
[23] = PLL4, stoichiometry N fixed to 2
[24] = PLL4, stoichiometry N fixed to 4
[25] = PLL4, stoichiometry N fixed to 6
[26] = PLL4, stoichiometry N fixed to 8
[27] = ITC, stoichiometry N fixed to 2
[28] = ITC, stoichiometry N fixed to 4
[29] = ITC, stoichiometry N fixed to 6
[30] = ITC, stoichiometry N fixed to 8

T3 sequence (Q7N8J0 entry or part of it): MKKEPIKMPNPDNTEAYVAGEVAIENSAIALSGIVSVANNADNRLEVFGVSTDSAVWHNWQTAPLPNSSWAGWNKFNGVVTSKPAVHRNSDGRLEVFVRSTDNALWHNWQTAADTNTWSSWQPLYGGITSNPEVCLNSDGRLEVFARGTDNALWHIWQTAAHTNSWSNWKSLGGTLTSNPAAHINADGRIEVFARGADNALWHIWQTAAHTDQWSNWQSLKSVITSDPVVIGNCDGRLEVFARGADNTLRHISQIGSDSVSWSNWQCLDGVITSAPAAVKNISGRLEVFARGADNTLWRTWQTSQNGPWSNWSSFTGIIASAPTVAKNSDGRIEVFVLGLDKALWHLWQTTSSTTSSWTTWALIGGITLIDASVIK
T2 sequence (Q7N8I6 entry or part of it): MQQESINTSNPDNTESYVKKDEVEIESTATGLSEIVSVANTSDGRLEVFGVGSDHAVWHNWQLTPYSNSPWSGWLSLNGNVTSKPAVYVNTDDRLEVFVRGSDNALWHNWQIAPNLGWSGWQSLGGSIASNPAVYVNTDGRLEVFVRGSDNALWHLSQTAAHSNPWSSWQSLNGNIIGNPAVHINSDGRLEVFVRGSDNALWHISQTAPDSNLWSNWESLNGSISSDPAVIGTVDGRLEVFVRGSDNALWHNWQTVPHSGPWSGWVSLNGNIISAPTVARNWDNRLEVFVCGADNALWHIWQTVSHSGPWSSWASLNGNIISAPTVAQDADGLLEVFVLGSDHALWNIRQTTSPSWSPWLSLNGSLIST
T1 sequence (Q7N8I5 entry or part of it): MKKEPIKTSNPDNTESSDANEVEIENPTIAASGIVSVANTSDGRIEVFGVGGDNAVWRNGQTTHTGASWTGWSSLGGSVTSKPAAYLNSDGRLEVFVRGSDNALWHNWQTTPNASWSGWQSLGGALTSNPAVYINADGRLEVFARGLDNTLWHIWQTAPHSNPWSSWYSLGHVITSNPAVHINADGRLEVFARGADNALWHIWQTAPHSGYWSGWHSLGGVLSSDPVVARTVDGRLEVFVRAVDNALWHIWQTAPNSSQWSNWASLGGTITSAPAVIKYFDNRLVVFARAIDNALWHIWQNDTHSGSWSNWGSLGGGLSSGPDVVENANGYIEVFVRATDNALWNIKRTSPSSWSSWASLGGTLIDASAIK

Compound	Kd (PLL2 [1]; [11]) [mM]	Kd (PLL2 [1]; [12]) [mM]	Kd (PLL2 [1]; [13]) [mM]	Kd (PLL2 [1]; [14]) [mM]	interaction with the sugar in ITC (in words) (PLL2 [1])	IC50 (PLL2 [3]; read-out: IC50) [mM]	Kd (PLL3 [4]; [15]) [mM]	Kd (PLL3 [4]; [16]) [mM]	Kd (PLL3 [4]; [17]) [mM]	Kd (PLL3 [4]; [18]) [mM]	interaction with the sugar in ITC (in words) (PLL3 [4])	KD (PLL5 [5]; [19])	KD (PLL5 [5]; [20])	KD (PLL5 [5]; [21])	KD (PLL5 [5]; [22])	interaction with the sugar in ITC (in words) (PLL5 [5])	KD (PLL [7]; [27])	KD (PLL [7]; [28])	KD (PLL [7]; [29])	KD (PLL [7]; [30])	other results
O=C[C@H](O)[C@@H](O)[C@@H](O)[C@H](O)CO [D-Gal, D-galactose]	0.5 ± 0.02	0.4 ± 0.03	0.3 ± 0.04	0.3 ± 0.06	interacted	> 100	3 ± 0.06	2.7 ± 0.14	2.5 ± 0.13	2.2 ± 0.06	interacted	No int	No int	No int	No int	did not bind these sugars significantly	No int	No int	No int	No int	IC50 (PLL3 [2]): inhibited only the binding of PLL3; IC50 (PLL2 [3]): not PLL2; KD (PLL4 [6]; [23]): No int; KD (PLL4 [6]; [24]): No int; KD (PLL4 [6]; [25]): No int; KD (PLL4 [6]; [26]): No int; interaction with the sugar in ITC (in words) (PLL4 [6]): did not bind these sugars significantly; interaction with the sugar in ITC (in words) (PLL [7]): did not bind these sugars significantly
OC[C@H]1OC(O)[C@H](O)[C@@H](O)[C@@H]1O (stereo partly drawn) [D-Glc]	–	3.6 ± 0.21	–	–	interacted	–	4 ± 0.12	3.6 ± 0.08	3.3 ± 0.07	3.1 ± 0.11	interacted	No int	No int	No int	No int	did not bind these sugars significantly	No int	No int	No int	No int	KD (PLL4 [6]; [23]): No int; KD (PLL4 [6]; [24]): No int; KD (PLL4 [6]; [25]): No int; KD (PLL4 [6]; [26]): No int; interaction with the sugar in ITC (in words) (PLL4 [6]): did not bind these sugars significantly; interaction with the sugar in ITC (in words) (PLL [7]): did not bind these sugars significantly
C[C@H](O)[C@@H](O)[C@@H](O)[C@H](O)C=O [L-Fuc, L-fucose]	2.8 ± 0.07	2.6 ± 0.08	2.4 ± 0.08	2.1 ± 0.1	–	1.2 ± 0.04	3.6 ± 0.14	3.3 ± 0.12	3.1 ± 0.1	2.9 ± 0.1	–	–	–	–	–	–	No int	No int	No int	No int	IC50 (PLL3 [2]; read-out: IC50): 2.5 ± 0.09 mM; Kd (PLL5 [5]; [19]): 16.6 ± 1.02 mM; Kd (PLL5 [5]; [20]): 16 ± 1.01 mM; Kd (PLL5 [5]; [21]): 15.4 ± 1 mM; Kd (PLL5 [5]; [22]): 14.7 ± 0.99 mM; Kd (PLL4 [6]; [23]): 31.2 ± 0.95 mM; Kd (PLL4 [6]; [24]): 29.9 ± 0.9 mM; Kd (PLL4 [6]; [25]): 28.6 ± 0.89 mM; Kd (PLL4 [6]; [26]): 27.2 ± 0.86 mM; IC50 (PLL5 [8]): 3.6 ± 0.13 mM; IC50 (PLL4 [9]): 5.7 ± 0.21 mM; IC50 (PLL [10]): 19.5 ± 7.5 mM
CO[C@@H]1O[C@@H](C)[C@@H](O)[C@@H](O)[C@@H]1O [αMeFuc, methyl-α-L-fucoside]	–	0.4 ± 0.02	–	–	–	0.1 ± 0.01	–	0.7 ± 0.03	–	–	–	–	–	–	–	–	–	–	–	–	IC50 (PLL3 [2]; read-out: IC50): 1 ± 0.05 mM; Kd (PLL5 [5]; [20]): 4.2 ± 0.17 mM; Kd (PLL4 [6]; [24]): 4.9 ± 0.08 mM; Kd (PLL [7]; [27]): 3.6 ± 0.07 mM; IC50 (PLL5 [8]): 1.7 ± 0.13 mM; IC50 (PLL4 [9]): 1.4 ± 0.04 mM; IC50 (PLL [10]): 4 ± 1.35 mM
